In ChEMBL document CHEMBL1275550, “In vitro activity of doripenem, a carbapenem for the treatment of challenging infections caused by gram-negative bacteria, against recent clinical isolates from the United States” (2008):
Values after ≈ are worked out from the molar mass of the structure shown.

Assays:
[1] = test system: Acinetobacter; assay: Antimicrobial activity against imipenem susceptible Acinetobacter assessed as susceptible isolate by broth microdilution method; type: functional
[2] = test system: Proteus mirabilis; assay: Antimicrobial activity against ESBL producing Proteus mirabilis assessed as susceptible isolate by broth microdilution method; type: functional
[3] = test system: Serratia marcescens; assay: Antimicrobial activity against Ceftazidime susceptible Serratia marcescens assessed as resistant isolate by broth microdilution method; type: functional
[4] = test system: Pseudomonas aeruginosa; assay: Antimicrobial activity against Pseudomonas aeruginosa isolated from ICU patient assessed as resistant isolate by broth microdilution method
[5] = test system: Pseudomonas aeruginosa; assay: Antimicrobial activity against Ceftazidime non-susceptible Pseudomonas aeruginosa assessed as susceptible isolate by broth microdilution method; type: functional
[6] = test system: Enterobacteriaceae; assay: Antimicrobial activity against Enterobacteriaceae assessed as resistant isolate by broth microdilution method; type: functional
[7] = test system: Klebsiella pneumoniae; assay: Antimicrobial activity against ESBL producing Klebsiella pneumoniae assessed as intermediate isolate by broth microdilution method; type: functional
[8] = test system: Citrobacter; assay: Antimicrobial activity against Citrobacter with nonderepressed AmpC beta-lactamsae assessed as susceptible isolate by broth microdilution method; type: functional
[9] = test system: Pseudomonas aeruginosa; assay: Antimicrobial activity against Pseudomonas aeruginosa isolated from non-ICU patient assessed as resistant isolate by broth microdilution method
[10] = test system: Serratia marcescens; assay: Antimicrobial activity against Ceftazidime non-susceptible Serratia marcescens assessed as intermediate isolate by broth microdilution method; type: functional
[11] = test system: Pseudomonas aeruginosa; assay: Antimicrobial activity against Pseudomonas aeruginosa isolated from ICU patient assessed as susceptible isolate by broth microdilution method
[12] = test system: Enterobacteriaceae; assay: Antimicrobial activity against Enterobacteriaceae assessed as intermediate isolate by broth microdilution method; type: functional
[13] = test system: Serratia marcescens; assay: Antimicrobial activity against Ceftazidime susceptible Serratia marcescens assessed as susceptible isolate by broth microdilution method; type: functional
[14] = test system: Enterobacteriaceae; assay: Antimicrobial activity against Enterobacteriaceae assessed as susceptible isolate by broth microdilution method; type: functional
[15] = test system: Klebsiella pneumoniae; assay: Antimicrobial activity against Klebsiella pneumoniae assessed as intermediate isolate by broth microdilution method; type: functional
[16] = test system: Enterobacteriaceae; assay: Antimicrobial activity against Ceftazidime non-susceptible Enterobacteriaceae by broth microdilution method; type: functional
[17] = test system: Pseudomonas aeruginosa; assay: Antimicrobial activity against Pseudomonas aeruginosa isolated from non-ICU patient by broth microdilution method
[18] = test system: Klebsiella pneumoniae; assay: Antimicrobial activity against Klebsiella pneumoniae by broth microdilution method; type: functional
[19] = test system: Pseudomonas aeruginosa; assay: Antimicrobial activity against imipenem non-susceptible Pseudomonas aeruginosa assessed as resistant isolate by broth microdilution method; type: functional
[20] = test system: Enterobacter cloacae; assay: Antimicrobial activity against Enterobacter cloacae with derepressed AmpC beta-lactamsae assessed as intermediate isolate by broth microdilution method; type: functional
[21] = test system: Pseudomonas aeruginosa; assay: Antimicrobial activity against Pseudomonas aeruginosa isolated from non-ICU patient by broth microdilution method; type: functional
[22] = test system: Klebsiella pneumoniae; assay: Antimicrobial activity against ESBL producing Klebsiella pneumoniae assessed as susceptible isolate by broth microdilution method; type: functional
[23] = test system: Citrobacter; assay: Antimicrobial activity against Citrobacter with derepressed AmpC beta-lactamsae assessed as intermediate isolate by broth microdilution method; type: functional
[24] = test system: Streptococcus pneumoniae; assay: Antimicrobial activity against penicillin-resistant Streptococcus pneumoniae by broth microdilution method; type: functional
[25] = test system: Enterobacter cloacae; assay: Antimicrobial activity against Enterobacter cloacae with nonderepressed AmpC beta-lactamsae assessed as susceptible isolate by broth microdilution method; type: functional
[26] = test system: Staphylococcus aureus; assay: Antimicrobial activity against methicillin-susceptible Staphylococcus aureus assessed as susceptible isolate by broth microdilution method; type: functional
[27] = test system: Pseudomonas aeruginosa; assay: Antimicrobial activity against Pseudomonas aeruginosa assessed as resistant isolate by broth microdilution method; type: functional
[28] = test system: Pseudomonas aeruginosa; assay: Antimicrobial activity against Pseudomonas aeruginosa by broth microdilution method; type: functional
[29] = test system: Pseudomonas aeruginosa; assay: Antimicrobial activity against imipenem non-susceptible Pseudomonas aeruginosa by broth microdilution method; type: functional
[30] = test system: Enterobacter cloacae; assay: Antimicrobial activity against Enterobacter cloacae by broth microdilution method; type: functional
[31] = test system: Pseudomonas aeruginosa; assay: Antimicrobial activity against Ceftazidime non-susceptible Pseudomonas aeruginosa assessed as intermediate isolate by broth microdilution method; type: functional
[32] = test system: Citrobacter; assay: Antimicrobial activity against Citrobacter assessed as susceptible isolate by broth microdilution method; type: functional
[33] = test system: Acinetobacter; assay: Antimicrobial activity against imipenem non-susceptible Acinetobacter assessed as intermediate isolate by broth microdilution method; type: functional
[34] = test system: Pseudomonas aeruginosa; assay: Antimicrobial activity against Ceftazidime susceptible Pseudomonas aeruginosa assessed as susceptible isolate by broth microdilution method; type: functional
[35] = test system: Citrobacter; assay: Antimicrobial activity against Citrobacter by broth microdilution method; type: functional
[36] = test system: Pseudomonas aeruginosa; assay: Antimicrobial activity against Ceftazidime susceptible Pseudomonas aeruginosa by broth microdilution method; type: functional
[37] = test system: Serratia marcescens; assay: Antimicrobial activity against Ceftazidime non-susceptible Serratia marcescens assessed as susceptible isolate by broth microdilution method; type: functional
[38] = test system: Klebsiella pneumoniae; assay: Antimicrobial activity against ESBL producing Klebsiella pneumoniae by broth microdilution method; type: functional
[39] = test system: Acinetobacter; assay: Antimicrobial activity against Acinetobacter by broth microdilution method; type: functional
[40] = test system: Proteus mirabilis; assay: Antimicrobial activity against Non-ESBL Proteus mirabilis assessed as susceptible isolate by broth microdilution method; type: functional
[41] = test system: Pseudomonas aeruginosa; assay: Antimicrobial activity against imipenem susceptible Pseudomonas aeruginosa assessed as intermediate isolate by broth microdilution method; type: functional
[42] = test system: Proteus mirabilis; assay: Antimicrobial activity against Proteus mirabilis by broth microdilution method; type: functional
[43] = test system: Enterobacteriaceae; assay: Antimicrobial activity against ceftazidime-susceptible Enterobacteriaceae by broth microdilution method; type: functional
[44] = test system: Enterobacteriaceae; assay: Antimicrobial activity against ceftazidime-susceptible Enterobacteriaceae assessed as intermediate isolate by broth microdilution method; type: functional
[45] = test system: Pseudomonas aeruginosa; assay: Antimicrobial activity against Pseudomonas aeruginosa assessed as intermediate isolate by broth microdilution method; type: functional
[46] = test system: Citrobacter; assay: Antimicrobial activity against Citrobacter assessed as intermediate isolate by broth microdilution method; type: functional
[47] = test system: Klebsiella pneumoniae; assay: Antimicrobial activity against Non-ESBL Klebsiella pneumoniae assessed as susceptible isolate by broth microdilution method; type: functional
[48] = test system: Escherichia coli; assay: Antimicrobial activity against Escherichia coli assessed as susceptible isolate by broth microdilution method; type: functional
[49] = test system: Enterobacteriaceae; assay: Antimicrobial activity against Ceftazidime non-susceptible Enterobacteriaceae assessed as resistant isolate by broth microdilution method; type: functional
[50] = test system: Citrobacter; assay: Antimicrobial activity against Citrobacter with derepressed AmpC beta-lactamsae assessed as susceptible isolate by broth microdilution method; type: functional
[51] = test system: Streptococcus pneumoniae; assay: Antimicrobial activity against penicillin-intermediate Streptococcus pneumoniae assessed as intermediate isolate by broth microdilution method; type: functional
[52] = test system: Pseudomonas aeruginosa; assay: Antimicrobial activity against imipenem susceptible Pseudomonas aeruginosa assessed as susceptible isolate by broth microdilution method; type: functional
[53] = test system: Streptococcus pneumoniae; assay: Antimicrobial activity against penicillin-resistant Streptococcus pneumoniae assessed as resistant isolate by broth microdilution method; type: functional

In the case of `C[C@@H](O)[C@H]1C(=O)N2C(C(=O)O)=C(S[C@@H]3CN[C@H](C(=O)N(C)C)C3)[C@H](C)[C@H]12` [MEROPENEM], the Activity [1] is reported as 97.9%, the Activity [2] is reported as 100% and the Activity [3] is reported as 0.8%. It also gave an Activity [4] of 18%, an Activity [5] of 60.9% and an Activity [6] of 0.1%. The Activity [7] was 0%, the Activity [8] was 100% and the Activity [9] was 12.4%. It also gave an Activity [10] of 0%, an Activity [11] of 74.1% and an Activity [12] of 0%. It also gave an Activity [13] of 99.2%, an Activity [14] of 99.8% and an Activity [15] of 0%. The MIC50 [16] was 0.12 mg/L (≈ 0.313 µM), the MIC90 [16] was 0.5 mg/L (≈ 1.3 µM) and the Activity [17] was 83.9%. It also gave an MIC50 [18] of 0.06 mg/L (≈ 0.156 µM), an MIC90 [18] of 0.06 mg/L (≈ 0.156 µM) and an Activity [19] of 40.6%. The Activity [20] was 0%, the MIC50 [21] was 1 mg/L (≈ 2.61 µM) and the MIC90 [21] was 16 mg/L (≈ 41.7 µM). For the same molecule, the Activity [22] was 95.5%, the Activity [23] was 0% and the MIC50 [24] was 1 mg/L (≈ 2.61 µM). For the same molecule, the MIC50 ([24]; Streptococcus pneumoniae, read-out: MIC50) was 1 mg/L (≈ 2.61 µM), the Activity [25] was 99.5% and the Activity [26] was 100%. It also gave an Activity [27] of 10.2%, an MIC50 [28] of 1 mg/L (≈ 2.61 µM) and an MIC90 [28] of 16 mg/L (≈ 41.7 µM). It also gave an MIC50 [29] of 8 mg/L (≈ 20.9 µM), an MIC90 [29] of 32 mg/L (≈ 83.4 µM) and an MIC50 [30] of 0.06 mg/L (≈ 0.156 µM). The MIC90 [30] was 0.25 mg/L (≈ 0.652 µM), the Activity [31] was 3.6% and the Activity [32] was 100%. The Activity [33] was 0%, the Activity [34] was 88.8% and the MIC50 [35] was 0.06 mg/L (≈ 0.156 µM). The MIC90 [35] was 0.12 mg/L (≈ 0.313 µM), the MIC50 [36] was 1 mg/L (≈ 2.61 µM) and the MIC90 [36] was 8 mg/L (≈ 20.9 µM). For the same molecule, the Activity [37] was 100%, the MIC50 [38] was 0.06 mg/L (≈ 0.156 µM) and the MIC90 [38] was 0.25 mg/L (≈ 0.652 µM). It also gave an MIC50 [39] of 1 mg/L (≈ 2.61 µM), an MIC90 [39] greater than 32 mg/L and an Activity [40] of 100%. The Activity [41] was 0.7%, the MIC50 [42] was 0.12 mg/L (≈ 0.313 µM) and the MIC90 [42] was 0.25 mg/L (≈ 0.652 µM). For the same molecule, the MIC50 [43] was 0.06 mg/L (≈ 0.156 µM), the MIC90 [43] was 0.12 mg/L (≈ 0.313 µM) and the Activity [44] was 0%. The Activity [45] was 4.6%, the Activity [46] was 0% and the Activity [47] was 99.8%. It also gave an Activity [48] of 100%, an Activity [49] of 1.3% and an Activity [50] of 100%. For the same molecule, the Activity [51] was 83.9%, the Activity [52] was 98.5% and the Activity [53] was 2.3%.
